Source: paper PMC12610573, “New Chlormequat-Based Ionic Liquids as Plant Resistance Inducers” (Molecules, 2025)

Key:
[1] = tested on: radish (Raphanus sativus) sprouts; experiment: Phytotoxicity test on radish sprouts; assay type: in vivo; settings: for Reduction in Sprout Mass: compared with untreated control; for Mass of 25 Sprouts: radish, 5 days, UTC 3.09 g; for Phytotoxic effect on radish sprout mass: versus control
Protocol: Twenty five seeds of radish (Raphanus sativus) were placed on a filter tissue in a Petri dish. […] Then, sprouts were weighted. All variants of treatment were tested together, with 3 replications (plates) in each of 2 cycles performed. Results were subjected to statistical analysis as described in Section 4.8.
(§1) Statistical significance of the effect of the treatments of plants with tested compounds on the phytotoxicity and SAR induction was assessed with the ANOVA test performed using the Statistica program StatSoft with software version 9.1 (StatSoft Sp. z o.o., Kraków, Poland). The statistical assumptions of normality and homogeneity of variances were verified prior to conducting the ANOVA tests. Differences between the means were estimated with Tukey’s HSD test at the significance level of p = 0.05.

[2] = tested on: Tobamovirus tabaci (tobacco mosaic virus, TMV) on Nicotiana tabacum cv. Xanthi; experiment: SAR induction assay: necrotic area after TMV inoculation of sprayed tobacco; assay type: in vivo; settings: for SAR Induction (percentage of necrotic area on leaves): TMV inoculation after 7 days, read 7 days later, UTC 34.54; for Reduction in Necrotic Area / pest or weed control at 125 µg/mL / pest or weed control at 250 µg/mL: compared with untreated control plants; for Percentage of necrotic spot coverage (leaf shown in supplementary figure): single leaf image; for pest or weed control at 125 µg/mL / pest or weed control at 250 µg/mL: topical, read-out: Reduction in Necrotic Area
Protocol: Plants of Nicotiana tabacum cv. Xanthi were grown under greenhouse conditions at 25 °C and 50% relative humidity, under natural daylight during the May–August growing season, with a natural photoperiod. The plants were sprayed with solutions containing the tested compounds.
In all experiments, the TMV SL-1 isolate Tobamovirus (TMV) was used. To obtain a viral inoculum, Nicotiana tabacum cv. Samsun plants were sap-inoculated with previously virus-infected plant material. After the appearance of disease symptoms on the infected plants (leaf mosaic), the virus was isolated by sucrose density gradient centrifugation with 0.01 M Tris-HCl, pH 7.0, to prepare the infectious inoculum. The concentration of virus in the obtained preparation was determined spectrophotometrically. The samples of TMV were stored at −20 °C until use.
The tested active substances at a given concentration were sprayed on tobacco plants with three fully developed leaves. The volume of working solution used was equal to 10 mL per plant. The compounds were dissolved in a water/propylene glycol solution (95/5, v/v). The plants of the untreated control variant were sprayed with a water/propylene glycol solution (95/5, v/v) that was used for the preparation of solutions of the tested compounds. After seven days, the plants were mechanically inoculated using purified viral preparations (0.01 ng/mL as described in [34]).
The plants were inoculated with the TMV inoculum at a concentration of 3.8 × 10^−4 ng per leaf. For each variant of treatment, 3 plants were sprayed, and 3 leaves of each plant were analyzed. The entire experiment was performed in 2 replicates. Necrotic areas on the leaves were determined using ImageJ software.
The surface of a leaf or an area with necrotic spots is represented by a set of pixels in the image, which are counted by the program. Reduction in necrotic area (ISAR) is expressed by the following formula:(1) ISAR=100−(At/Ac∗100) where At is the ratio of the area of necrotic spots caused by viral infection that appeared on the leaf treated with the test substance to the whole area of the leaf; Ac is the ratio of the area of the necrotic spots caused by viral infection that appeared on the leaf of the control plant to the whole area of the leaf.
as §1

[3] = Solubility tests in representative solvents (Vogel protocol); settings: 25 °C
Protocol: The solubilities of the prepared ILs in ten representative solvents were determined according to the protocols from Vogel’s Textbook of Practical Organic Chemistry. The solvents chosen for the study were arranged in order of descending value of their Snyder polarity index: water—9.0, methanol—6.6, acetone—5.1, isopropanol—4.3, toluene—2.3, and hexane—0.0.

[4] = Thermogravimetric analysis (TGA), thermal stability; settings: TGA under nitrogen, 10 °C/min; for Thermal Stability T5%onset: 5% weight loss onset
Protocol: TGA was performed on a TGA Q50 (Texas Instruments, Dallas, TX, USA) under nitrogen. Samples (5–10 mg) were heated from 25 °C to 500 °C at 10 °C/min with an isothermal step at 85 °C for 10 min. T5%onset and Tonset values were recorded.

SMILES	Reduction in Sprout Mass ([1]; 125 mg/L) [%]	Mass of 25 Sprouts ([1]; 125 mg/L)	Reduction in Sprout Mass ([1]; 250 mg/L) [%]	Mass of 25 Sprouts ([1]; 250 mg/L)	SAR Induction (percentage of necrotic area on leaves) ([2]; 125 mg/L spray)	SAR Induction (percentage of necrotic area on leaves) ([2]; 250 mg/L spray)	pest or weed control at 125 µg/mL ([2]; 125 mg/L) [%]	pest or weed control at 250 µg/mL ([2]; 250 mg/L) [%]	further results
C[N+](C)(C)CCCl.O=C([O-])c1cc(Cl)cc(Cl)c1O [[CC][3,5-ClSal]]	27.51	2.24 cde C g	37.38	1.94 ef B g	7.79 ab A %	4.93 abc A %	–	–	Reduction in Necrotic Area ([2]; 125 mg/L): 77.4%; Reduction in Necrotic Area ([2]; 250 mg/L): 85.7%; Solubility in Hexane ([3]; Snyder polarity index 0.0): − (insoluble); Solubility in Toluene ([3]; Snyder polarity index 2.3): − (insoluble); Solubility in Isopropanol ([3]; Snyder polarity index 4.3): +/− (of limited solubility); Solubility in Acetone ([3]; Snyder polarity index 5.1): − (insoluble); Solubility in Methanol ([3]; Snyder polarity index 6.6): + (soluble); Solubility in Water ([3]; Snyder polarity index 9.0): +/− (of limited solubility); Thermal Stability T5%onset [4]: 208.3 °C
O=C(O)c1ccccc1O [Salicylic acid]	29.77	2.17 cd B g	63.27	1.14 bc A g	26.60 fg C %	25.06 g C %	23	27.4	Percentage of necrotic spot coverage (leaf shown in supplementary figure) ([2]; 125 mg/L): 23.67%; Percentage of necrotic spot coverage (leaf shown in supplementary figure) ([2]; 250 mg/L): 19.86%
C[N+](C)(C)CCCl.O=C([O-])c1cccnc1 [[CC][Nic]]	8.20	2.84 hi B g	26.16	2.28 hi A g	19.70 de B %	11.52 def A %	–	–	Phytotoxic effect on radish sprout mass ([1]; 125 mg/L): no phytotoxic effect; Phytotoxic effect on radish sprout mass ([1]; 250 mg/L): significant decrease in the radish sprout mass; Reduction in Necrotic Area ([2]; 125 mg/L): 43.0%; Reduction in Necrotic Area ([2]; 250 mg/L): 66.7%; Thermal Stability T5%onset [4]: 166.9 °C; Thermal Stability Tonset ([4]; decomposition onset): 89.9 °C
O=C(O)c1cc(Cl)nc(Cl)c1 [2,6-dichloroisonicotinic acid]	40.29	1.85 ab B g	54.31	1.41 d A g	18.15 cd B %	14.90 f AB %	47.5	56.9	–
O=C(O)c1cccnc1 [Nicotinic acid]	10.79	2.76 gh B	–	2.63 j AB g	27.69 fg C %	22.07 g B %	19.8	36.1	–
O=C(O)c1ccncc1 [Isonicotinic acid]	29.07	2.19 cde B g	42.83	1.77 e A g	31.12 gh B %	25.58 g A %	9.9	26	–
O=C(O)c1cc(Cl)cc(Cl)c1O [3,5-dichlorosalicylic acid]	32.96	2.07 bcd B g	59.49	1.25 cd A g	15.03 cd B %	7.51 bcd A %	56.5	78.3	–
